From patent US10400242B2, “Methods for treating acute myeloid leukemia and nanoparticle complexes of miR-22 utilized therein” (University of Cincinnati, priority 2016, dated 2019)

Tests used:
THP-1 cells = assay: ATRA-treatment study, gene expression (qPCR) in THP-1 cells; type: cell-based, human; conditions: 1 μM ATRA, 72 hours, vs DMSO
Description: Total RNA was extracted with the miRNeasy extraction kit (Qiagen, Valencia, Calif.) and was used as template to synthesize cDNA for quantitative RT-PCR (qPCR) analysis in a 7900HT real-time PCR system (Applied Biosystems, Foster City, Calif.). TaqMan qPCR assay was performed to validate the differential expression patterns of miR-22 using commercial kits from Applied Biosystems (Cat. #4427975). Sequences for the controls are: sno202: 5′-[…]-3′ (SEQ ID NO: 1); RNU6B: 5′-[…]-3′ (SEQ ID NO: 4). qPCR with SYBR Green dye (Qiagen) was used to determine expression of mRNA genes. snoRNA202, RNU48, Gapdh or GAPDH were used as endogenous controls for qPCR of miRNA and mRNA, respectively. Each sample was run in triplicate. qPCR primers are available upon request. For determining the miR-22 DNA locus copy number, TaqMan qPCR assay was used as described previously^57.
(§1) For the ATRA-treatment study, THP-1 cells were seeded at a concentration of 0.4×10^6/mL and treated with ATRA (1 μmol/L) or vehicle control (DMSO, 0.001%) for 72 hours before cells were collected for RNA analysis or CUP assays.

miR-22 promoter = assay: Bisulfite sequencing of miR-22 promoter in ATRA-treated THP-1 cells; type: cell-based, human; conditions: 1 μM ATRA or DMSO, 72 hrs
miR-22 promoter region = assay: ChIP-qPCR of miR-22 promoter region in ATRA-treated THP-1 cells; type: cell-based, human; conditions: 1 μM ATRA, 72 hours
Description: as §1
ChIP assay was performed, as described previously^14, 17, with SABiosciences Corporation's ChampionChiP™ One-Day kit (Qiagen, Frederick, Md.) following the manufacturer's protocol, with some modifications. Briefly, pellets of 5×10^6 cells were treated with fresh fixing buffer (1% formaldehyde) for 10 min at 37° C. to crosslink DNA and proteins. The reaction was terminated by the addition of stop buffer and incubated at room temperature for 5 min. After cell lysis, the cross-linked chromatin was sonicated to an average size of ˜500 bp and was immunoprecipitated with antibodies against TET1, GFI1 (Santa Cruz Biotechnology Inc., Santa Cruz, Calif.), the N′-terminal portion of MLL (MLL-N), the C′-terminal of MLL (MLL-C), H3K27Me3, H3K4Me3, RNA polymerase II, EZH2, SIN3A or IgG (Abcam, Cambridge, Mass.). Purified ChIP DNA was amplified by real-time qPCR using specific primers targeting the CpG-enriched upstream region of human miR-22: Forward: 5′-GTT GTT GGA GTC GTG AGT G-3′ (SEQ ID NO: 15); reverse: 5′-CGC TCC ACC TTT CCT TAA A-3′ (SEQ ID NO: 16); or mouse miR-22: Forward: 5′-TGA ATG GGC GGG AGT AA-3′ (SEQ ID NO: 17); reverse: 5′-CCAC GAG CTG CGA ATG AA-3′ (SEQ ID NO: 18).

U937 cells = assay: Cellular uptake of dendrimers in U937 cells; type: cell-based; conditions: U937 cells (very low levels of FLT)
Description: (§2) In order to selectively deliver miR-22 oligos to FLT3-expressing AML cells, Poly(amidoamine) (PAMAM) dendrimers (Hong S, et al. Bioconjugate Chemistry. 2006; 17:728-34, Hong S, et al. Bioconjugate Chemistry. 2009; 20:1503-13, and Sunoqrot S, et al. J Control Release. 2014; 191:115-22, incorporated herein by reference) are selected as the basis of the nanoparticle carriers, and conjugated with the near-infrared dye Cyanine 5.5 (Cy5.5) for monitoring the dynamic distributions of the nanoparticles, and FLT3 ligand (FLT3L) proteins for specific targeting FLT3 on the cell surface. H2B, a nuclear histone protein with similar molecular weight as FLT3L, was conjugated as a negative control. G7-FLT3L dendrimers will efficiently and selectively target AML cells with FLT3 overexpression.

MONOMAC-6 cells [1] = assay: Viability and apoptosis of MONOMAC-6 cells treated with dendrimers; type: cell-based, human; conditions: compared with PBS
MONOMAC-6 cells [2] = assay: Cellular uptake of dendrimers in MONOMAC-6 cells; type: cell-based, human
Description: as §2

| Molecule | WDR81 level (THP-1 cells) | expression of TET1, EZH2 and SIN3A (THP-1 cells) | expression of TET2 or TET3 (down-regulation) (THP-1 cells) | increase in miR-22 expression level (THP-1 cells) | transcription level of GFI1 (THP-1 cells) | methylation status of the miR-22 promoter (miR-22 promoter) | H3K4Me3 modifications at miR-22 promoter region (miR-22 promoter region) | H3K27me3 modifications at miR-22 promoter region (miR-22 promoter region) | RNA polymerase II occupancy at miR-22 promoter region (miR-22 promoter region) | binding of GFI1, TET1, EZH2 and SIN3A to the miR-22 promoter region (miR-22 promoter region) | binding of MLL protein to the miR-22 promoter region (reduction) (miR-22 promoter region) | uptake ratios, G7-FLT3L vs G7-H2B (U937 cells) | viability and apoptosis (cytotoxicity) (MONOMAC-6 cells [1]) | one-hour uptake ratio (MONOMAC-6 cells [2]; FLT3-overexpressing AML cells, one hour) | uptake ratio after suppression of endogenous FLT3 expression (MONOMAC-6 cells [2]; MONOMAC-6 cells overexpressing miR-22) | uptake ratio after 24 hours' treatment (MONOMAC-6 cells [2]; MONOMAC-6 cells, 24 hours, G7-FLT3L vs G7-H2B control) |
| --- | --- | --- | --- | --- | --- | --- | --- | --- | --- | --- | --- | --- | --- | --- | --- | --- |
| CC1=C(/C=C/C(C)=C/C=C/C(C)=C/C(=O)O)C(C)(C)CCC1 [ATRA, all-trans-retinoic acid] | no significant effects | significantly down-regulated | not | more than 5 fold | substantially reduced | hypomethylated | no significant change | significantly decreased | increased | remarkably reduced | not | – | – | – | – | – |
| G7-FLT3L dendrimers: FLT3L-conjugated Generation 7 (G7) PAMAM dendrimers, Cy5.5-labelled, targeting FLT3 on AML cells (conjugate) TQDCSFQHSPISSDFAVKIRELSDYLLQDYPVTVASNLQDEELCGGLWRLVLAQRWMERLKTVAGSKMQGLLERVNTEIHFVTKCAFQPPPSCLRFVQTNISRLLQETSEQLVALKPWITRQNFSRCLELQCQPDSSTLPPPWSPRPLEATAPTA | – | – | – | – | – | – | – | – | – | – | – | no significant difference | low, if any, cytotoxicity | 23.6% | significant decrease | significantly higher |
